Patent US20040147788A1, “Stilbene derivatives and their use as aryl hydrocarbon receptor antagonistic ligands” (priority 2002, published 2004)

Assays:
AhR = target: T1, AhR (Homo sapiens, UniProt P35869); settings: in humans; cited from earlier work
T1 sequence (P35869 11-848): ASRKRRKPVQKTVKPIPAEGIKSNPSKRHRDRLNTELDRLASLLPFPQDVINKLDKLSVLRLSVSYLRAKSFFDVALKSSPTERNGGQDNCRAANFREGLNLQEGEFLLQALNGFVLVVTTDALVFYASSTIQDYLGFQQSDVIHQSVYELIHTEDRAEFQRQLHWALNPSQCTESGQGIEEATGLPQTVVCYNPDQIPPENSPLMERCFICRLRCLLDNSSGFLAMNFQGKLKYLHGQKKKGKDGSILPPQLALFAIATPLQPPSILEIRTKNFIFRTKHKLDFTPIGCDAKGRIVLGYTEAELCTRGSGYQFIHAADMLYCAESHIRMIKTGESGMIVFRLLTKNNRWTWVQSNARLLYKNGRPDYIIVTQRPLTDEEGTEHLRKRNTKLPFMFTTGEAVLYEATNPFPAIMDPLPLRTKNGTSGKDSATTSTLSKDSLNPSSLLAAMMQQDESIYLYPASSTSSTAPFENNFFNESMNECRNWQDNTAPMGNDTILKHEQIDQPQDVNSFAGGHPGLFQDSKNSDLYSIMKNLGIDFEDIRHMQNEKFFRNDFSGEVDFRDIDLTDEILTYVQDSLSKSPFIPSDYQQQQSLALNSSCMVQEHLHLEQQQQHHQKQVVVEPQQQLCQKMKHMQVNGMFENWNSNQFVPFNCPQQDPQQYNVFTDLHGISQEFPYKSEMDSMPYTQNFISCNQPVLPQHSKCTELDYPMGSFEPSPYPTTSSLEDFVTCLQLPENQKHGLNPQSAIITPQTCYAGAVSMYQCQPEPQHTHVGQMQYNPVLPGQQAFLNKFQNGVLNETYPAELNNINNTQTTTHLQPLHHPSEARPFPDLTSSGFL

CYP1A1/AHH = settings: read-out: ED50 for induction of CYP1A1/AHH; porcine aortic endothelial; cited from earlier work
ER = target: T2, ER (Homo sapiens, UniProt P03372); assay: ER-mediated transactivation, ERE-driven Luciferase reporter stable cell line (MCF-7-Luc); assay type: cell-based; settings: trans-stilbenes; also: key: Ago: agonist; N.M.: not measurable
T2 construct: stably transfecting MCF-7 cells with the ERE-globin-tk-luc-SV-Neo plasmid; endogenous in cells; host or cells: MCF-7-Luc (MCF-7 stably transfected with ERE-globin-tk-luc-SV-Neo)
T2 sequence (P03372 1-595): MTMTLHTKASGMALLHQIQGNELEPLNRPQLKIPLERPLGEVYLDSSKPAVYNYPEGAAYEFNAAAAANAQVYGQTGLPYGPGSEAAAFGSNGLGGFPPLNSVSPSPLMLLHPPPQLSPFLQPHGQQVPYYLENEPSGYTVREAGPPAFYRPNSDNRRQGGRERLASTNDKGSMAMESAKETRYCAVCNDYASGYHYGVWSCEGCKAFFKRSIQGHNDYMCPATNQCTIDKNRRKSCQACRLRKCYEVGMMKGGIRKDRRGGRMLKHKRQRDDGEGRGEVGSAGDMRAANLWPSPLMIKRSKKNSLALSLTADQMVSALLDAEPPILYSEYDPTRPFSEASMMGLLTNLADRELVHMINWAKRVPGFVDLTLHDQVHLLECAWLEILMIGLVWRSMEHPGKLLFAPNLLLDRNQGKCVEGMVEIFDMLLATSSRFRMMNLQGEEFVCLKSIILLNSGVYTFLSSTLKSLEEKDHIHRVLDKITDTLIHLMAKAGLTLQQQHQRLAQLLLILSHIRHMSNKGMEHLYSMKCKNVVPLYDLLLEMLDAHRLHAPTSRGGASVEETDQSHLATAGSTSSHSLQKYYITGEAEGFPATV
Procedure: The human adenocarcinoma breast cell line MCF-7 was obtained from the American Tissue Culture Collection (Rockville, USA). The cells were established by stably transfecting MCF-7 cells with the ERE-globin-tk-luc-SV-Neo plasmid and thus expressed luciferase in an estrogen dependent manner MCF-7-Luc. […] Cells were incubated at 37° C. in a humidified 5% CO2 incubator. For experiments, cells were grown for 5 days in phenol red-free medium, containing 5% dextran-coated charcoal treated FCS (DCC-FCS). Medium was changed after 2 days. At day 5, cells were treated or not with compounds. Compounds were dissolved in ethanol.
For each condition, 15.103 cells were seeded per well in 12-well plates and treated, as described above, during 16 hours in a final volume of 0.5 mL. At the end of the treatment, cells were washed with PBS and lysed in 150 μl of lysis buffer (Promega, Charbonnieres, France). Luciferase activity was measured using the luciferase assay reagent (Promega), according to the manufacturer's instructions. Protein concentrations were measured using Bradford technique, to normalize the luciferase activity data. For each condition, average luciferase activity was calculated from the data of 3 independent wells.

A549 cell line = assay: Cytotoxicity, MTT colorimetric assay; assay type: cell-based, human
Procedure: Cytotoxicity was evaluated on the A549 cell line. […] A MTT colorimetric assay was employed as described in (5) according to the established procedure 1. Drug stock solutions were prepared in EtOH and the final solvent concentration was=1% EtOH(v/v), a concentration without effect on cell replication. […] Cells were cultured at 37° C. in RPMI-1640 medium with streptomycin/penicillin and 5% (v/v) FCS in a humidified atmosphere containing 5% CO2. Initial seeding densities varied among the cell lines to ensure a final absorbance reading in control cultures in the range of 0.7-1 […] units. After the addition of the samples to the cell culture, the cells were incubated for 5 days before the MTT reagent was added. Each test was performed in duplicate and absorbance readings varied no more than 5%.

Row | SMILES | Kd (AhR) [nM] | EC50 (CYP1A1/AHH) [nM] | ER T.A. (transcriptional activity) (ER) | cytotoxicity: not toxic up to concentration (A549 cell line) [µM]
1 | Clc1cc2c(cc1Cl)Oc1cc(Cl)c(Cl)cc1O2 [TCDD, 2,3,7,8-tetrachlorodibenzo-p-dioxin] | 1 | 0.015 | – | –
2 | Oc1ccc(C=Cc2cc(O)cc(O)c2)cc1 [Resveratrol, 3,5,4′-trihydroxystilbene, reference compound] | – | – | Ago | > 10
